Data from article PMC8270260, “4,7-Disubstituted 7H-Pyrrolo[2,3-d]pyrimidines and Their Analogs as Antiviral Agents against Zika Virus” (Molecules, 2021).

Tests used:
[1] = test system: ZIKV; assay: ZIKV reporter assay (luciferase-expressing ZIKV PAN1 Nluc in Huh7 cells); format: cell-based; conditions: Zika virus, Huh-7, Huh7, MOI 0.2, 72 hpi
Experimental: The initial screening for ZIKV was performed using the in-house developed infectious ZIKV reporter expressing Nanoluc (ZIKV PAN1 Nluc) (see details in SI). Briefly, 1.5 × 10^4 Huh7 cells per well were seeded in 96 well plates. Next day, cells were inoculated with the ZIKV reporter at a multiplicity of infection (MOI) of 0.2 in infection medium (MEM medium supplemented with 1% FBS, 100 IU streptomycin/penicillin per mL, 1 mM sodium pyruvate and 10 mM HEPES). After 2 h, the inoculum was replaced with post-infection medium (MEM medium supplemented with 5% FBS, 100 IU streptomycin/penicillin per mL, 1 mM sodium pyruvate and 10 mM HEPES) containing compound of interest (10 µM). We used the flavivirus NS5 MTase inhibitor NSC12155^13 (10 µM) and the NS5 RdRp inhibitor NITD008^12 (1 µM) as positive controls for inhibition or 0.05% DMSO as vehicle control. Seventy-two hours post-infection (hpi), the cells were lysed with 50 µL 1× luciferase lysis buffer (Promega, Madison, WI, USA), incubated 10 min at room temp and stored at −80 °C. Thirty-five µL of lysed cells were transferred to a white 96-well plate and combined with 35 µL Nano-Glo® luciferase assay substrate (Promega) diluted 1:50 in Nano-Glo® luciferase assay buffer (Promega). The reaction was incubated for 2 min and luminescence readings were acquired using a Neo 2 plate reader (BioTek, Winooski, VT, USA). Percent inhibition was calculated in GraphPad Prism (San Diego, CA, USA) normalizing the luciferase signal to infected cells treated with DMSO (0% inhibition) and uninfected cells treated with DMSO (100% inhibition). EC50 values were calculated in GraphPad Prism using data obtained from dose-response experiments. For compounds 1 and 8, a range of concentrations between 0.05 and 15 µM were used. For compounds 11, 14, 23 and NSC12155, we used concentrations from 0.005 to 90 µM and 0.002 to 45 µM for NITD008.

[2] = Cell viability assay (MTS); format: cell-based; conditions: human, non-infected Huh7 cells; for viability at 10 µM: normalized to DMSO; for CC50 at 72 h: Huh7 cells
Experimental: Cell viability assays for non-infected Huh7 cells treated with the testing compounds (in-house library), control compounds (NITD008, RDV) and DMSO were performed in parallel with the antiviral screening. After 3 or 5 days of treatment, depending upon the experiment, cell viability was evaluated using the MTS-based tetrazolium reduction CellTiter 96 Aqueous Non-Radioactive cell proliferation assay (Promega). Treatment was retired from the wells and the cells incubated with MTS diluted 1:10 in MEM medium supplemented with 10% FBS. Absorbance was measured at 490 nm wavelength. Readings were normalized with DMSO-treated cells (100%) and expressed as % viability. For dose-response experiments, we used concentrations between 0.01 and 90 µM and dose-response curves and CC50 were calculated using GraphPad Prism.

[3] = test system: ZIKV; assay: ZIKV titer-reduction assay (plaque assay); format: cell-based, Zika virus; conditions: Huh7, MOI 0.2, 72 hpi; for inhibition at 8.5 µM / inhibition at 1.5 µM: Huh-7, 72 h
Experimental: Selected compounds were validated at 8.5 µM or 1.5 µM (for compounds considered toxic at higher concentrations) using titer-reduction assays. Huh7 cells (1.5 × 10^5 per well) were plated in 24-well plates. Next day, the cells were inoculated with ZIKV or DENV (MOI 0.2 or 0.05, respectively) and two hours later, the inoculum was replaced with post-infection medium containing compound of interest at 8.5 µM or 1.5 µM. Seventy-two hpi, supernatants from infected and treated cells were collected and viral titers were measured by plaque assay. To visualize plaques, confluent Vero cells in 24-well plates were inoculated with 1:10 serial dilutions of supernatants. After two hours, the inoculum was retired and replaced with 800 µL of overlay medium (MEM medium containing 1.3% methylcellulose, 2% FBS, 100 IU streptomycin/penicillin per mL and 10 mM HEPES). After 5 days (7 days for DENV), cells were washed with PBS, fixed with 2% formaldehyde, and stained using 0.5% crystal violet in 25% methanol. Infectious virus titer (pfu/mL) was determined using the following formula: number of plaques × dilution factor × (1/inoculum volume (mL)). Viral titers were normalized with DMSO-treated and infected cells (0% inhibition). The limit of detection was 200 pfu/mL (100% inhibition). […] Dose-response assays (Figure S4, Panels B and C) were performed for selected compounds using titer-reduction assays. We used a concentration range of 0.5 to 15 µM for all selected compounds except for compound 14 (range of 0.1–3 µM). Pfu/mL were normalized as mentioned for single-dose response experiment using the values for DMSO-treated and infected cells (0% inhibition) and the limit of detection value (200 pfu/mL) as 100% inhibition. Dose-response curves were built in GraphPad Prism and EC50 values were obtained from those curves.

Compound	inhibition at 10 µM [1]	viability at 10 µM [2]	inhibition at 8.5 µM ([3]; Zika virus, 8.5 µM)	other results
Nc1ccc(Cn2ccc3c(NCc4cccc(Cl)c4)ncnc32)cc1 [Compound 2, 7-(4-Aminobenzyl)-N-(3-chlorobenzyl)-7H-pyrrolo[2,3-d]pyrimidin-4-amine]	72%	38%		Titer Reduction Assay % at 1.5 µM ([3]; 1.5 µM): toxic
Clc1cccc(CNc2ncnc3c2ccn3Cc2ccccc2)c1 [Compound 3, 7-Benzyl-N-(3-chlorobenzyl)-7H-pyrrolo[2,3-d]pyrimidin-4-amine]	42%	90%	68%	
O=[N+]([O-])c1ccccc1Cn1ccc2c(NCc3cccc(Cl)c3)ncnc21 [Compound 4, N-(3-Chlorobenzyl)-7-(2-nitrobenzyl)-7H-pyrrolo[2,3-d]pyrimidin-4-amine]	44%	93%	82%	
O=[N+]([O-])c1cccc(Cn2ccc3c(NCc4cccc(Cl)c4)ncnc32)c1 [Compound 5, N-(3-Chlorobenzyl)-7-(3-nitrobenzyl)-7H-pyrrolo[2,3-d]pyrimidin-4-amine]	77%	79%	92%	
FC(F)(F)c1ccc(Cn2ccc3c(NCc4cccc(Cl)c4)ncnc32)cc1 [Compound 6, N-(3-Chlorobenzyl)-7-(4-(trifluoromethyl)benzyl)-7H-pyrrolo[2,3-d]pyrimidin-4-amine]	85%	62%	83%	
CS(=O)(=O)c1ccc(Cn2ccc3c(NCc4cccc(Cl)c4)ncnc32)cc1 [Compound 7, N-(3-Chlorobenzyl)-7-(4-(methylsulfonyl)benzyl)-7H-pyrrolo[2,3-d]pyrimidin-4-amine]	98%	39%		inhibition at 1.5 µM ([3]; Zika virus, 1.5 µM): 69%
FC(F)(F)c1cccc(Cn2ccc3c(NCc4cccc(Cl)c4)ncnc32)c1 [Compound 9, N-(3-Chlorobenzyl)-7-(3-(trifluoromethyl)benzyl)-7H-pyrrolo[2,3-d]pyrimidin-4-amine]	92%	61%		Titer Reduction Assay % at 8.5 µM ([3]; 8.5 µM): toxic
CS(=O)(=O)c1cccc(Cn2ccc3c(NCc4cccc(Cl)c4)ncnc32)c1 [Compound 10, N-(3-Chlorobenzyl)-7-(3-(methylsulfonyl)benzyl)-7H-pyrrolo[2,3-d]pyrimidin-4-amine]	72%	82%	92%	
Clc1cccc(CNc2ncnc3c2ccn3Cc2cccc3ccccc23)c1 [Compound 12, N-(3-Chlorobenzyl)-7-(naphthalen-1-ylmethyl)-7H-pyrrolo[2,3-d]pyrimidin-4-amine]	84%	73%	66%	
Clc1cccc(CNc2ncnc3c2ccn3Cc2ccc3ccccc3c2)c1 [Compound 13, N-(3-Chlorobenzyl)-7-(naphthalen-2-ylmethyl)-7H-pyrrolo[2,3-d]pyrimidin-4-amine]	75%	45%		inhibition at 1.5 µM ([3]; Zika virus, 1.5 µM): 18%
Clc1cccc(CNc2ncnc3c2ccn3Cc2ccnc3ccccc23)c1 [Compound 14, N-(3-Chlorobenzyl)-7-(quinolin-4-ylmethyl)-7H-pyrrolo[2,3-d]pyrimidin-4-amine]	100%	48%		EC50 [1]: 0.93 µM; CC50 at 72 h [2]: 5.67 µM; inhibition at 1.5 µM ([3]; Zika virus, 1.5 µM): 94%; EC50 ([3]; Zika virus, Huh-7): 1.1 µM; EC90 ([3]; Zika virus, Huh-7): 2.28 µM
N#Cc1ccc(Cn2ccc3c(NCc4cccc(Cl)c4)ncnc32)c2ccccc12 [Compound 15, 4-((4-((3-Chlorobenzyl)amino)-7H-pyrrolo[2,3-d]pyrimidin-7-yl)methyl)-1-naphthonitrile]	69%	84%	0%	CC50 at 72 h [2]: 39.6 µM
Clc1cccc(CNc2ncnc3c2ccn3Cc2ccc3nc(Cl)ccc3c2)c1 [Compound 16, N-(3-Chlorobenzyl)-7-((2-chloroquinolin-6-yl)methyl)-7H-pyrrolo[2,3-d]pyrimidin-4-amine]	95%	34%		inhibition at 1.5 µM ([3]; Zika virus, 1.5 µM): 10%
Nc1ncnc2c1ccn2Cc1ccc([N+](=O)[O-])cc1 [Compound 17, 7-(4-Nitrobenzyl)-7H-pyrrolo[2,3-d]pyrimidin-4-amine]	0%	92%		
O=[N+]([O-])c1ccc(Cn2ccc3c(NCc4ccccc4)ncnc32)cc1 [Compound 18, N-Benzyl-7-(4-nitrobenzyl)-7H-pyrrolo[2,3-d]pyrimidin-4-amine]	96%	42%		
O=[N+]([O-])c1ccc(Cn2ccc3c(NCc4ccccc4Cl)ncnc32)cc1 [Compound 19, N-(2-Chlorobenzyl)-7-(4-nitrobenzyl)-7H-pyrrolo[2,3-d]pyrimidin-4-amine]	49%	80%	91%	
O=[N+]([O-])c1ccc(Cn2ccc3c(NCc4ccc(Cl)cc4)ncnc32)cc1 [Compound 20, N-(4-Chlorobenzyl)-7-(4-nitrobenzyl)-7H-pyrrolo[2,3-d]pyrimidin-4-amine]	93%	49%		inhibition at 1.5 µM ([3]; Zika virus, 1.5 µM): 37%
O=[N+]([O-])c1ccc(Cn2ccc3c(NCc4cccc(Cl)c4Cl)ncnc32)cc1 [Compound 21, N-(2,3-Dichlorobenzyl)-7-(4-nitrobenzyl)-7H-pyrrolo[2,3-d]pyrimidin-4-amine]	67%	77%	91%	
Cc1cccc(CNc2ncnc3c2ccn3Cc2ccc(C#N)cc2)c1 [Compound 25, 4-((4-((3-Methylbenzyl)amino)-7H-pyrrolo[2,3-d]pyrimidin-7-yl)methyl)benzonitrile]	84%	33%		
N#Cc1ccc(Cn2ccc3c(NCc4ccccc4Cl)ncnc32)cc1 [Compound 26, 4-((4-((2-Chlorobenzyl)amino)-7H-pyrrolo[2,3-d]pyrimidin-7-yl)methyl)benzonitrile]	58%	76%		
N#Cc1ccc(Cn2ccc3c(NCc4cccc(Cl)c4Cl)ncnc32)cc1 [Compound 27, 4-((4-((2,3-Dichlorobenzyl)amino)-7H-pyrrolo[2,3-d]pyrimidin-7-yl)methyl)benzonitrile]	71%	78%		
N#Cc1ccc(Cn2ccc3c(NCc4cc(Cl)ccc4Cl)ncnc32)cc1 [Compound 28, 4-((4-((2,5-Dichlorobenzyl)amino)-7H-pyrrolo[2,3-d]pyrimidin-7-yl)methyl)benzonitrile]	74%	48%		
